Assay results taken from the NIST ThermoML archive (doi:10.1016/j.fluid.2005.08.011).
Numbers after ± are expanded uncertainties.

Conditions: Gas, isochoric method

CCF [fluoroethane]
Conditions	mass density [kg/m3]
356.15 K, 2885.7 kPa	68.626 ± 0.24
356.16 K, 2305.7 kPa	48.782 ± 0.17
356.16 K, 3104.4 kPa	78.187 ± 0.27
356.26 K, 3251.2 kPa	85.647 ± 0.3
357.26 K, 3274.8 kPa	85.642 ± 0.3
358.15 K, 1481.8 kPa	27.547 ± 0.11
358.15 K, 1906.7 kPa	37.477 ± 0.14
358.15 K, 2569.2 kPa	56.174 ± 0.19
358.15 K, 2920 kPa	68.619 ± 0.24
358.15 K, 3297.7 kPa	85.639 ± 0.31
358.16 K, 2328.4 kPa	48.777 ± 0.17
358.16 K, 2692.5 kPa	60.266 ± 0.21
358.16 K, 3145.7 kPa	78.179 ± 0.27
358.16 K, 3506.4 kPa	97.915 ± 0.34
359.16 K, 3534.2 kPa	97.91 ± 0.34
360.15 K, 2595.9 kPa	56.168 ± 0.19
360.15 K, 2954.3 kPa	68.612 ± 0.24
360.16 K, 2721.3 kPa	60.26 ± 0.21
360.16 K, 3186 kPa	78.171 ± 0.27
360.16 K, 3343.9 kPa	85.63 ± 0.3
360.16 K, 3562.2 kPa	97.905 ± 0.34
360.17 K, 2350.8 kPa	48.772 ± 0.17
360.17 K, 3660.7 kPa	104.59 ± 0.38
361.15 K, 3589.9 kPa	97.9 ± 0.33
361.16 K, 3691 kPa	104.585 ± 0.37
362.14 K, 2622.7 kPa	56.163 ± 0.19
362.15 K, 811.8 kPa	13.877 ± 0.072
362.15 K, 2988.3 kPa	68.605 ± 0.23
362.15 K, 3226.2 kPa	78.163 ± 0.27
362.15 K, 3389.2 kPa	85.622 ± 0.3
362.15 K, 3617 kPa	97.896 ± 0.34
362.16 K, 1505 kPa	27.541 ± 0.1
362.16 K, 1939.6 kPa	37.469 ± 0.14
362.16 K, 3721.4 kPa	104.58 ± 0.37
362.17 K, 2373 kPa	48.767 ± 0.17
362.17 K, 2750.9 kPa	60.254 ± 0.21
363.15 K, 3644.5 kPa	97.891 ± 0.33
363.16 K, 3751.4 kPa	104.574 ± 0.37
364.15 K, 2649.2 kPa	56.157 ± 0.19
364.15 K, 3023 kPa	68.598 ± 0.23
364.15 K, 3434.4 kPa	85.613 ± 0.3
364.15 K, 3780.8 kPa	104.569 ± 0.36
364.16 K, 2394.9 kPa	48.762 ± 0.17
364.16 K, 3266.5 kPa	78.156 ± 0.27
364.16 K, 3671.6 kPa	97.886 ± 0.34
364.17 K, 2779.6 kPa	60.248 ± 0.21
365.16 K, 3698.9 kPa	97.881 ± 0.33
365.16 K, 3810.4 kPa	104.564 ± 0.36
366.14 K, 1527.7 kPa	27.536 ± 0.11
366.14 K, 2675.7 kPa	56.152 ± 0.19
366.15 K, 1971.5 kPa	37.462 ± 0.13
366.15 K, 3056.7 kPa	68.592 ± 0.23
366.15 K, 3306.2 kPa	78.148 ± 0.26
366.15 K, 3478.5 kPa	85.605 ± 0.29
366.15 K, 3725.2 kPa	97.876 ± 0.33
366.15 K, 3839.8 kPa	104.559 ± 0.36
366.16 K, 2417.4 kPa	48.757 ± 0.17
366.16 K, 2808.4 kPa	60.242 ± 0.21
367.15 K, 3751.8 kPa	97.871 ± 0.33
367.15 K, 3869 kPa	104.554 ± 0.36
368.14 K, 2702 kPa	56.146 ± 0.19
368.14 K, 3090.7 kPa	68.585 ± 0.23
368.15 K, 3346 kPa	78.14 ± 0.26
368.15 K, 3523.3 kPa	85.596 ± 0.29
368.15 K, 3898.1 kPa	104.548 ± 0.36
368.16 K, 2439.4 kPa	48.753 ± 0.16
368.16 K, 2837.3 kPa	60.236 ± 0.2
368.16 K, 3778.8 kPa	97.866 ± 0.33
369.14 K, 3805.1 kPa	97.861 ± 0.33
369.15 K, 3927.3 kPa	104.543 ± 0.36
370.12 K, 1550.1 kPa	27.531 ± 0.1
370.13 K, 3123.8 kPa	68.578 ± 0.23
370.14 K, 2728 kPa	56.14 ± 0.19
370.14 K, 3568 kPa	85.588 ± 0.29
370.14 K, 3831.8 kPa	97.857 ± 0.33
370.15 K, 833.2 kPa	13.872 ± 0.071
370.15 K, 2461.8 kPa	48.748 ± 0.17
370.15 K, 3385.9 kPa	78.132 ± 0.26
370.15 K, 3956.2 kPa	104.538 ± 0.35
370.16 K, 2004 kPa	37.454 ± 0.13
370.16 K, 2865.8 kPa	60.23 ± 0.2
